Data reported in ChEMBL document CHEMBL3526057 (Drug Metab Dispos, 2011).

Target: Cytochrome P450 2C19 (Homo sapiens, UniProt P33261, S51G)
Test: Activity of human recombinant CYP2C19.19 mutant expressed in Saccharomyces cerevisiae BJ5457 assessed as intrinisic clearance foromeprazole 5'-hydroxylation per pmol protein after 60 mins
Format: ADME
Settings: recombinant enzyme, 1 h

CL: 0.66 µL/min
SMILES: COc1ccc2[nH]c([S+]([O-])Cc3ncc(C)c(OC)c3C)nc2c1 (stereo unspecified) [OMEPRAZOLE]
